Earlier results, collected in patent publication US10487097B2, “4,6-di-(O-thiophosphate)-inositol-1,2,3,5-tetra-O-sulfate for C. difficile infection” (priority 2015, dated 2019).

Settings: colon lumen, background statement

O=P(O)(O)O[C@H]1[C@H](OP(=O)(O)O)[C@@H](OP(=O)(O)O)[C@H](OP(=O)(O)O)[C@@H](OP(=O)(O)O)[C@H]1OP(=O)(O)O [IP6, inositol hexakisphosphate]
precipitation due to high calcium concentration: precipitates
